Test results taken from patent US8609700B2, “Pyridine compounds for controlling invertebrate pests I” (BASF SE, priority 2010, dated 2013).

Experiments:
Format in all cases: in vivo
[1] = tested on: Silverleaf Whitefly (Bemisia argentifolii, Adult); experiment: Silverleaf whitefly, cotton plants sprayed; settings: 300 ppm, 3 days after treatment
Description: II.8 Silverleaf Whitefly (Bemisia argentifolii, Adult)
(§1) The active compounds were formulated in cyclohexanone as a 10,0000 ppm solution supplied in 1.3 ml ABgene® tubes. These tubes were inserted into an automated electrostatic sprayer equipped with an atomizing nozzle and they served as stock solutions for which lower dilutions were made in 50% acetone:50% water (vol/vol). A nonionic surfactant (Kinetic®) was included in the solution at a volume of 0.01% (vol/vol).
Cotton plants at the cotyledon stage (one plant per pot) were sprayed by an automated electrostatic plant sprayer equipped with an atomizing spray nozzle. The plants were dried in the sprayer fume hood and then removed from the sprayer. Each pot was placed into a plastic cup and 10 to 12 whitefly adults (approximately 3-5 days old) were introduced. The insects were collected using an aspirator and 0.6 cm, nontoxic Tygon® tubing (R-3603) connected to a barrier pipette tip. The tip, containing the collected insects, was then gently inserted into the soil containing the treated plant, allowing insects to crawl out of the tip to reach the foliage for feeding. Cups were covered with a reusable screened lid (150-micron mesh polyester screen PeCap from Tetko, Inc.). […] Mortality was assessed 3 days after treatment, compared to untreated control plants.

[2] = tested on: Brown Planthopper (Nilaparvata lugens); experiment: Brown planthopper, rice seedlings sprayed; settings: 500 ppm, after 72 hours
Description: II.7 Activity Against Brown Planthopper (Nilaparvata lugens)
The active compounds were formulated as a 50:50 (vol/vol) acetone:water solution. Surfactant (Alkamuls EL 620) was added at the rate of 0.1% (vol/vol).
Rice seedlings were cleaned and washed 24 h before spraying. Potted rice seedlings were sprayed with 5 ml test solution, air dried, placed in cages and inoculated with 10 adults. Treated rice plants were kept at 28-29° C. and relative humidity of 50-60%. Percent mortality was recorded after 72 hours.

[3] = tested on: Cotton Aphid (Aphis gossypii, Mixed Life Stages); experiment: Cotton aphid, method b) (electrostatic sprayer); settings: 300 ppm; infested cotton plants sprayed; after 5 days
Description: II.1 Cotton Aphid (Aphis gossypii, Mixed Life Stages)
as §1, with “sur25 factant” for “surfactant”
Cotton plants at the cotyledon stage were infested with aphids prior to treatment by placing a heavily infested leaf from the main aphid colony on top of each cotyledon. Aphids were allowed to transfer overnight to accomplish an infestation of 80-100 aphids per plant and the host leaf was removed. The infested plants were then sprayed by an automated electrostatic plant sprayer equipped with an atomizing spray nozzle. The plants were dried in the sprayer fume hood, removed from the sprayer, and then maintained in a growth room under fluorescent lighting in a 24-hr photoperiod at 25° C. and 20-40% relative humidity. Aphid mortality on the treated plants, relative to mortality on untreated control plants, was determined after 5 days.

[4] = tested on: Boll Weevil (Anthonomus grandis); experiment: Boll weevil, insect diet in 24-well-microtiter plates; settings: 120 h, test solution 2500 mg/L, sprayed onto insect diet, 5 days, read-out: mortality (egg and larval)
Description: II.5 Boll Weevil (Anthonomus grandis)
The compounds were formulated in 75:25 (vol/vol) water:DMSO.
For evaluating control of boll weevil (Anthonomus grandis) the test unit consisted of 24-well-microtiter plates containing an insect diet and 20-30 A. grandis eggs. Different concentrations of formulated compounds were sprayed onto the insect diet at 20 μl, using a custom built micro atomizer, at two replications. After application, the microtiter plates were incubated at 23±1° C. and 50±5% relative humidity for 5 days. Egg and larval mortality was then visually assessed.

O=C(Nc1cccnc1)c1sccc1C(F)(F)F [Compound 7] was tested, and the “mortality in comparison with untreated controls” value (shortened to “mortality in comparison”) [1] was “at least 75%”.
CN(C(=O)c1cccn1C)c1cccnc1 [Compound 14] was tested, and the “mortality in comparison” value [2] was “at least 50%”.
O=C(Nc1cccnc1)c1cscc1C(F)(F)F [Compound 26] was tested, and the “mortality in comparison” value [3] was “at least 75%”.
With CN(C(=O)c1cc(Cl)sc1Cl)c1cccnc1 [Compound 28, 2,5-Dichloro-thiophene-3-carboxylic acid methyl-pyridin-3-yl-amide] the mortality at 2500 µg/mL [4] was ≥ 50%.
